# Test results reported in patent publication US20080242870A1 (priority 2006, published 2008).
# Several values for one entry are separate records, joined by “and”; a condition that tells them apart may be missing. Equal values may be shown once.
# Legend:
# [1] = Absorption spectra of anthracene diimides in solvents of increasing polarity (Example 1); assay type: physicochemical
# [2] = Emission spectra of anthracene diimides at room temperature (Example 1); assay type: physicochemical; conditions: for Em. λmax: (p) peak, (s) shoulder
# Method: (§1) Unless otherwise stated, all experiments used optically dilute solutions (Optical Density (OD)<0.2) at room temperature. […] Emission spectra were obtained with an Aminco-Bowman luminescence spectrometer (Series 2). The excitation was accomplished with a 150 W Xe lamp optically coupled to a monochrometer (+2 nm). The emission was collected at […] and passed through a second monochrometer (±2 nm). Luminescence was measured with a photomultiplier tube (PMT).
# [3] = Luminescence lifetime by TCSPC (Example 1); assay type: physicochemical; conditions: for 1τ: TCSPC 370 nm pulsed LED
# Method: (§2) Luminescence lifetimes were measured with an IBH time-correlated single photon counting (TCSPC) system equipped with an IBH Model TBX-04 Photon Detection Module. The excitation source for the TCSPC measurements was a pulsed LED (IBH NanoLED, 455 nm, 1.3 ns pulse duration or 403 nm, <200 ps pulse duration) with a repetition rate of 1 MHz. All data was analyzed by iterative reconvolution of the decay profile (10,000 counts at the peak channel) with the instrument response function using software provided by the instrument manufacturer.
# [4] = Radiative quantum yield against standards (Example 1); assay type: physicochemical
# Method: as §1
# [5] = Sub-ambient (77 K) emission in 2-methyltetrahydrofuran; assay type: physicochemical; conditions: for emission bands: 2-methyltetrahydrofuran, 405 nm excitation
# Method: FIGS. 7a and 7b show normalized emission spectra for the diphenyl anthracene diimides (top) and the tetraphenyl anthracene diimides (bottom) at 77° K in 2-methyltetrahydrofuran and 405 nm excitation.
# In an attempt to better understand the excited state properties of the diphenyl and tetraphenyl anthracene diimides, sub-ambient (77 K) emission experiments were performed, with the results shown in FIGS. 7a and 7b. In the case of the diphenyl derivatives, DPO (35), DP (37), and DC (39) display similar emission spectra with overlapping bands near 434 nm, […], and 492 nm. Although the peak ratios differ slightly, the band shapes and positions are nearly identical. […] Similar results are observed for the tetraphenyl series. Here, TPO (40) and TP (41) display spectral features analogous to DPO (35), DP (37), and DC (39), but at lower energy.
# [6] = Stokes shift / Lippert-Mataga solvatochromic analysis; assay type: physicochemical
# Excerpt: The solvatochromic response of the anthracene diimides to photoexcitation was further characterized by analysis of the Stokes' shift and Lippert-Mataga polarity parameter,
# where v is the Stokes' shift in wavenumbers, h is Plank's constant, c is the speed of light, ∈0 is the permittivity of free space, Δμ is the change in the dipole moment upon excitation, α^3 is the molecule's volume, as is the solvent dielectric constant, and n is the solvent refractive index. This relationship quantifies the change in dipole between the ground state and excited state of a molecule and, when used with the calculated ground state dipole, the magnitude of the excited state dipole moment may be estimated. Each line represents a solvatochromic emission component of the corresponding diimide. All other bands were not solvatochromic and not included in the analysis. For example, the emission spectra of DPO (35) in the selection of solvents were nearly identical and could not be used in the Lippert-Mataga correlations. DP (37) had two components in the emission profiles; a higher energy band that quickly disappeared with increasing solvent polarity and a lower energy component that red-shifted with increasing solvent polarity.
# [7] = in toluene
# [8] = in toluene; remark: listed apart in the source
# [9] = depending on the solvent
# Method: as §2
Compound,Abs. λmax ([1]; ACN (38.8)),Abs. λmax ([1]; Acetone (20.1)),Abs. λmax ([1]; C2H4Cl2 (10.7)),Abs. λmax ([1]; CHCl3 (4.8)),Abs. λmax ([1]; Ethyl Acetate (6.02)),Abs. λmax ([1]; THF (7.6)),Abs. λmax ([1]; Toluene (2.4)),Em. λmax ([2]; Acetone (20.1)),Em. λmax ([2]; C2H4Cl2 (10.7)),Em. λmax ([2]; CHCl3 (4.8)),Em. λmax ([2]; Ethyl Acetate (6.02)),Em. λmax ([2]; THF (7.6)),Em. λmax ([2]; Toluene (2.4)),1τ ([3]; Toluene (2.4)),Φr ([4]; Acetone (20.1)),Φr ([4]; C2H4Cl2 (10.7)),Φr ([4]; CHCl3 (4.8)),Φr ([4]; Ethyl Acetate (6.02)),Φr ([4]; THF (7.6)),Φr ([4]; Toluene (2.4)),further results
CCCCCCCCn1c(=O)c2c(-c3ccccc3)c3cc4c(-c5ccccc5)c5c(=O)n(CCCCCCCC)c(=O)c5c(-c5ccccc5)c4cc3c(-c3ccccc3)c2c1=O [TPO],428 nm,427 nm,430 nm,432 nm,426 nm,427 nm,428 nm,443(p) nm and 466(p) nm,445(p) nm and 470(p) nm,447(p) nm and 471(p) nm,442(p) nm and 465(p) nm,445(p) nm and 467(p) nm,447(p) nm and 468(p) nm,2.77 ns,0.21,0.23,0.26,0.21,0.20,0.19,"Em. λmax ([2]; ACN (38.8)): 443(p) nm and 468(p) nm; emission band position ([2]; room temperature, all solvents): ~428 nm; 1τ ([3]; ACN (38.8)): 3.84 ns; 1τ ([3]; Acetone (20.1)): 3.34 ns; 1τ ([3]; C2H4Cl2 (10.7)): 3.19 ns; 1τ ([3]; CHCl3 (4.8)): 3.54 ns; 1τ ([3]; Ethyl Acetate (6.02)): 3.12 ns; 1τ ([3]; THF (7.6)): 3.03 ns; Φr ([4]; ACN (38.8)): 0.24"
CCCCCCCCn1c(=O)c2cc3cc4c(-c5ccccc5)c5c(=O)n(CCCCCCCC)c(=O)c5cc4cc3c(-c3ccccc3)c2c1=O [DPO],423 nm,421 nm,424 nm,426 nm,420 nm,421 nm,422 nm,435(p) nm,436(p) nm,437(p) nm,433(p) nm,435(p) nm,437(p) nm,6.36 ns,0.37,0.46,0.36,0.34,0.37,0.35,Em. λmax ([2]; ACN (38.8)): 435(p) nm; 1τ ([3]; ACN (38.8)): 8.03 ns; 1τ ([3]; Acetone (20.1)): 7.29 ns; 1τ ([3]; C2H4Cl2 (10.7)): 5.60 ns; 1τ ([3]; CHCl3 (4.8)): 5.79 ns; 1τ ([3]; Ethyl Acetate (6.02)): 6.90 ns; 1τ ([3]; THF (7.6)): 6.71 ns; Φr ([4]; ACN (38.8)): 0.46; emission bands ([5]; listed as DPO (35)): ~434 nm and ~461 nm and ~492 nm
CCCCCCOc1ccc(-n2c(=O)c3cc4cc5c(-c6ccccc6)c6c(=O)n(-c7ccc(OCCCCCC)cc7)c(=O)c6cc5cc4c(-c4ccccc4)c3c2=O)cc1 [DP],,423 nm,426 nm,428 nm,421 nm,422 nm,422 nm,500(s) nm and 584(p) nm,502(s) nm and 557(p) nm,536(p) nm and 501(p) nm,500(s) nm and 555(p) nm,502(s) nm and 562(p) nm,497(p) nm and 525(p) nm,0.62 ns,0.0082,0.020,0.028,0.015,0.017,0.066,"1τ ([3]; Acetone (20.1)): <0.20 ns; 1τ ([3]; C2H4Cl2 (10.7)): <0.20 ns; 1τ ([3]; CHCl3 (4.8)): 0.38 ns; 1τ ([3]; Ethyl Acetate (6.02)): <0.20 ns; 1τ ([3]; THF (7.6)): <0.20 ns; lifetime ([3]; in ethyl acetate and solvents of higher polarity): below 200 ps; lifetime ([3]; in toluene): 620 ps; Φr ([4]; Toluene (2.4), listed as DP (37)): 0.18; slope of Lippert plot ([6]; second (lower energy) emission component, R^2=0.99): 6,600.2 cm^−1; emission bands ([5]; listed as DP (37)): ~434 nm and ~461 nm and ~492 nm"
CCCCCCOc1ccc(-n2c(=O)c3c(-c4ccccc4)c4cc5c(-c6ccccc6)c6c(=O)n(-c7ccc(OCCCCCC)cc7)c(=O)c6c(-c6ccccc6)c5cc4c(-c4ccccc4)c3c2=O)cc1 [TP],431 nm,429 nm,435 nm,435 nm,428 nm,429 nm,431 nm,454(p) nm and 576(p) nm,450(p) nm and 478(p) nm and 497(p) nm and 549(p) nm,450(p) nm and 482(p) nm and 564(p) nm,448(s) nm and 499(s) nm and 549(p) nm,459(s) nm and 499(s) nm and 552(p) nm,482(p) nm and 520(s) nm,1.03 ns,0.011,0.029,0.08,0.023,0.027,0.21,"Em. λmax ([2]; ACN (38.8)): 456(p) nm and 474(s) nm and 585(p) nm; Em. λmax ([2]; Toluene (2.4), listed as TP (41)): ~431 nm; Φr ([4]; ACN (38.8)): 0.0080"
"N,N′-Bis(methyl 18-crown-6)-1,5-bis(phenyl)anthracene-2,3,6,7-tetracarboxyl diimide",,,,,,,,,,,,,,,,,,,,,"extinction coefficient, ∈ [7]: 12,500 M^−1 cm^−1; quantum yield, Φ [8]: 0.37; lifetime (single exponential) [9]: 5.5-6.5 ns"
"N,N′-Bis(m-(boronic acid)phenyl)-1,5-bis(phenyl)anthracene-2,3,6,7-tetracarboxyl diimide",,,,,,,,,,,,,,,,,,,,,lifetime (single exponential) [9]: 5-5.5 ns
CCCCCCOc1ccc(-n2c(=O)c3cc4cc5c(-c6ccc(C#N)cc6)c6c(=O)n(-c7ccc(OCCCCCC)cc7)c(=O)c6cc5cc4c(-c4ccc(C#N)cc4)c3c2=O)cc1 [DC],423 nm,423 nm,425 nm,425 nm,418 nm,420 nm,417 nm,599(p) nm,571(p) nm,555(p) nm and 504(s) nm,573(p) nm,579(p) nm,505(s) nm and 543(p) nm,0.39 ns,0.0062,0.017,0.025,0.012,0.013,0.046,Em. λmax ([2]; ACN (38.8)): 600(p) nm; 1τ ([3]; ACN (38.8)): <0.20 ns; 1τ ([3]; Acetone (20.1)): <0.20 ns; 1τ ([3]; C2H4Cl2 (10.7)): 0.21 ns; 1τ ([3]; CHCl3 (4.8)): 0.27 ns; 1τ ([3]; Ethyl Acetate (6.02)): <0.20 ns; 1τ ([3]; THF (7.6)): <0.20 ns; Φr ([4]; ACN (38.8)): 0.0051; calculated dipole change (Δμ) ([6]; Lippert-Mataga correlation): 31.1 D; Stokes' shift of charge transfer excited state ([6]; from toluene to acetonitrile): 95 nm; emission bands ([5]; listed as DC (39)): ~434 nm and ~461 nm and ~492 nm
CCCCCCOc1ccc(-n2c(=O)c3cc4cc5c(-c6ccc(OC)cc6)c6c(=O)n(-c7ccc(OCCCCCC)cc7)c(=O)c6cc5cc4c(-c4ccc(OC)cc4)c3c2=O)cc1 [DM],427 nm,426 nm,430 nm,431 nm,425 nm,426 nm,428 nm,463(p) nm and 492(p) nm and 554(p) nm,463(p) nm and 490(s) nm and 526(p) nm,491(s) nm and 465(p) nm,463(p) nm and 488(p) nm and 526(p) nm,463(p) nm and 494(p) nm and 538(p) nm,462(p) nm and 488(s) nm,1.25 ns,0.011,0.030,0.064,0.028,0.021,0.18,Em. λmax ([2]; ACN (38.8)): 463(p) nm and 487(s) nm and 551(p) nm; 1τ ([3]; C2H4Cl2 (10.7)): 0.34 ns; 1τ ([3]; CHCl3 (4.8)): 0.59 ns; Φr ([4]; ACN (38.8)): 0.0087; red shift of emission spectrum ([5]; relative to the other members of the series): 13 nm
